Test results reported in patent US9808527B2, “Methods and compositions for treating HIV infections” (priority 2006, dated 2017).
Read-outs that look alike come from different tables or passages of the source.

Tests used:
[1] = test system: Ba-L (B-R5); assay: p24 Gag production inhibition, PHA-PBMs, subtype B Ba-L; assay type: cell-based, HIV-1; settings: Human immunodeficiency virus 1, BAL, read-out: IC50 against Ba-L (B-R5)
Description: (§1) Drug susceptibility assay. The susceptibility of HIV-1LAI, HIV-2EHO, HIV-2ROD, to various drugs and the cytotoxicity of those drugs was determined by using the MTT assay. Briefly, MT-2 cells (2×10^4/mL) were exposed to 100 TCID50s (50% tissue culture infectious doses) of HIV-1LAI, HIV-2EHO, or HIV-2ROD in the presence or absence of various concentrations of drugs in 96-well microculture plates and were incubated at 37° C. for 7 days. After 100 μL of the medium was removed from each well, 3-(4,5-dimethylthiazol-2-yl)-2,5-diphenyltetrazolium bromide (MTT) solution (10 μL, 7.5 mg/mL in phosphate-buffered saline) was added to each well in the plate, followed by incubation at 37° C. for 4 hours. […] All assays were performed in duplicate or triplicate. To determine the sensitivity of HIV-1Ba-L, HIV-1ERS104 pre, and clinical multi-drug-resistant HIV-1 isolates and different subtypes of HIV-1 isolates to drugs, phytohemagglutinin-activated peripheral blood mononuclear cells (PHA-PBMs; 10^6/mL) were exposed to 50 TCID50 (50% tissue infectious dose) of each HIV-1 isolate and cultured in the presence or absence of various concentrations of drugs in 10-fold serial dilutions in 96-well microtiter culture plates. To determine the drug susceptibility of certain laboratory HIV-1 strains (HIV-1NL4-3), MT-4 cells were used as target cells. MT-4 cells (10^5/mL) were exposed to 100 TCID50 of wild type HIV-1NL4-3 and PI-resistant HIV-1NL4-3 in the presence or absence of various concentrations of drugs and were incubated at 37° C. On day 7 of culture, the supernatant was harvested and the amount of p24 Gag protein was determined by using a fully automated chemiluminescent enzyme immunoassay system (Lumipulse F; Fujirebio Inc., Tokyo, Japan) (22). […] All assays were performed in duplicate or triplicate.
(§2) The IC50 values were determined by using PHA-PBMs as target cells and the inhibition of p24 Gag protein production by each drug was used as an endpoint. All assays were conducted in duplicate, and the data shown represent mean values (±1 standard deviations) derived from the results of two or three independent experiments.

[2] = test system: MT-2 cells; assay: Cytotoxicity by MTT assay; assay type: cell-based, Human
Description: as §1

[3] = test system: 97ZA003 (C-R5); assay: p24 Gag production inhibition, PHA-PBMs, subtype C isolate 97ZA003; assay type: cell-based, HIV-1
Description: as §1, §2

[4] = test system: 92UG029 (A-X4); assay: p24 Gag production inhibition, PHA-PBMs, subtype A isolate 92UG029; assay type: cell-based, HIV-1
Description: as §1, §2

[5] = test system: HIV-1LAI; assay: MTT assay, MT-2 cells exposed to HIV-1LAI (acute HIV-1 infection assay); assay type: cell-based; settings: for IC50: Human immunodeficiency virus 1, MT2, 168 h; for Selectivity Index: HIV-1LAI
Description: as §1

[6] = test system: HIV-2ROD; assay: MTT assay, MT-2 cells exposed to HIV-2ROD; assay type: cell-based
Description: as §1
(§3) All assays were conducted in duplicate, and the data shown represent mean values (±1 standard deviations) derived from the results of three independent experiments.

[7] = test system: HIV-2EHO; assay: MTT assay, MT-2 cells exposed to HIV-2EHO; assay type: cell-based
Description: as §1, §3

[8] = test system: HIV-1NL4-3; assay: p24 Gag production inhibition, MT-4 cells, wild-type HIV-1NL4-3; assay type: cell-based
Description: as §1

[9] = cytotoxicity, MTT assay, MT-2 cells, read-out: CC50
[10] = Human immunodeficiency virus 1, PHA-PBMs, p24 Gag production, read-out: IC50 against 97ZA003 (C-R5)
[11] = Human immunodeficiency virus 1, PHA-PBMs, p24 Gag production, read-out: IC50 against 92UG029 (A-X4)
[12] = MT-2 cells, 100 TCID50 of HIV-1LAI, MTT assay on day 7, read-out: IC50 against HIV-1LAI
[13] = Human immunodeficiency virus 2, MT2, MT-2 cells, 100 TCID50, MTT assay, read-out: IC50 against HIV-2ROD
[14] = Human immunodeficiency virus 2, MT2, MT-2 cells, 100 TCID50, MTT assay, read-out: IC50 against HIV-2EHO
[15] = Human immunodeficiency virus 1, MT4, read-out: IC50 against HIV-1NL4-3 (wild type)
[16] = read-out: IC50 against HIV-1LAI, MT-2 cells, 100 TCID50 of HIV-1LAI, MTT assay on day 7
[17] = Human immunodeficiency virus 2, MT2, read-out: IC50 against HIV-2ROD
[18] = Human immunodeficiency virus 2, MT2, read-out: IC50 against HIV-2EHO
[19] = Human immunodeficiency virus 1, MT4, MT-4 cells, 100 TCID50, p24 Gag production, read-out: IC50 against HIV-1NL4-3 (wild type)

Row | SMILES | IC50 ([1]; PHA-PBMs, p24 Gag production) [nM] | CC50 [2, 9] [nM] | IC50 [3, 10] [nM] | IC50 [4, 11] [nM] | IC50 [5, 12] [nM] | IC50 [6, 13] [nM] | IC50 [7, 14] [nM] | CC50 ([2]; human, 7 days) [nM] | IC50 [8, 15] [nM] | Selectivity Index ([5]; MT-2 cells) | IC50 [5, 16] [nM] | IC50 [6, 17] [nM] | IC50 [7, 18] [nM] | IC50 [1] [nM] | IC50 ([3]; Human immunodeficiency virus 1, read-out: IC50 against 97ZA003 (C-R5)) [nM] | IC50 ([4]; Human immunodeficiency virus 1, read-out: IC50 against 92UG029 (A-X4)) [nM] | IC50 [8, 19] [nM] | IC50 ([5]; read-out: MTT assay (IC50, nM), Human CD4+ MT-2 cells, 100 TCID50 of HIV-1LAI, day 7) [nM]
1 | CC(C)CN(C[C@@H](O)[C@H](Cc1ccccc1)NC(=O)O[C@H]1CCOC1)S(=O)(=O)c1ccc(N)cc1 [APV, Amprenavir] | 25 ± 6 | > 100000 | 33 ± 5 | 46 ± 6 | 36 ± 2 | 570 ± 10 | 250 ± 80 |  |  |  |  |  |  |  |  |  |  | 
2 | CC(C)(C)NC(=O)[C@@H]1CN(Cc2cccnc2)CCN1C[C@@H](O)C[C@@H](Cc1ccccc1)C(=O)N[C@H]1c2ccccc2C[C@H]1O [IDV, indinavir] | 22 ± 5 | 69800 | 37 ± 6 | 44 ± 9 | 48 ± 7 | 54 ± 3 | 24 ± 5 |  |  |  |  |  |  |  |  |  |  | 
3 | COC(=O)N[C@H](C(=O)N[C@@H](Cc1ccccc1)[C@@H](O)CN(Cc1ccc(-c2ccccn2)cc1)NC(=O)[C@@H](NC(=O)OC)C(C)(C)C)C(C)(C)C [ATV, Atazanavir] | 1.3 ± 0.4 |  | 3.4 ± 0.1 | 6 ± 2 |  |  |  | 27600 | 4.2 ± 0.4 | 5750 | 4.8 ± 0.1 | 13 ± 6 | 5 ± 2 |  |  |  |  | 
4 | CC(C)(C)NC(=O)[C@@H]1C[C@@H]2CCCC[C@@H]2CN1C[C@@H](O)[C@H](Cc1ccccc1)NC(=O)[C@H](CC(N)=O)NC(=O)c1ccc2ccccc2n1 [SQV, Saquinavir] |  | 16400 |  |  |  |  |  |  | 7 ± 2 | 2050 | 8 ± 1 | 4.3 ± 0.2 | 3 ± 0.4 | 8.3 ± 0.5 | 6.7 ± 0.8 | 4.8 ± 0.5 |  | 
5 | Cc1c(O)cccc1C(=O)N[C@@H](CSc1ccccc1)[C@H](O)CN1C[C@H]2CCCC[C@H]2C[C@H]1C(=O)NC(C)(C)C [NFV, Nelfinavir] | 18 ± 4 | 8100 | 37 ± 7 | 43 ± 6 | 32 ± 4 | 240 ± 9 | 30 ± 6 |  |  |  |  |  |  |  |  |  | 33 ± 7 | 
6 | CC(C)CN(CC(O)C(Cc1ccccc1)NC(=O)OC1COC2OCCC12)S(=O)(=O)c1ccc2c(c1)OCO2 (stereo not shown) [GRL-98065] | 0.2 ± 0.1 |  | 0.5 ± 0.1 | 0.5 ± 0.2 |  |  |  |  | 0.3 ± 0.2 | 71,400 | ~0.5 | 4.5 ± 0.4 | 3.2 ± 0.7 |  |  |  |  | 0.4
7 | CC(C)c1nc(CN(C)C(=O)N[C@H](C(=O)N[C@@H](Cc2ccccc2)C[C@H](O)[C@H](Cc2ccccc2)NC(=O)OCc2cncs2)C(C)C)cs1 [RTV, ritonavir] | 23 ± 6 |  | 39 ± 4 | 71 ± 11 | 54 ± 1 | 260 ± 10 | 210 ± 50 |  |  |  |  |  |  |  |  |  | 33 ± 2 | 
8 | Cc1cccc(C)c1OCC(=O)N[C@@H](Cc1ccccc1)[C@@H](O)C[C@H](Cc1ccccc1)NC(=O)[C@H](C(C)C)N1CCCNC1=O [LPV, lopinavir] | 5.3 ± 0.4 | > 100000 | 7.3 ± 0.6 | 7 ± 1 | 7 ± 1 | 4.9 ± 0.8 | 2.6 ± 0.8 |  |  |  |  |  |  |  |  |  | 31 ± 9 | 
